According to ChEMBL document CHEMBL4251670, “Cyclopiamines C and D: Epoxide Spiroindolinone Alkaloids from Penicillium sp. CML 3020” (J Nat Prod, 2018):
pIC50: −log10 of the molar value.

What was measured:
SW480 = assay: Cytotoxicity against human SW480 cells after 72 hrs by CellTiter-Glo luminescent assay; assay type: functional, cell-based; settings: SW480, 72 h
Acinetobacter baumannii = assay: Antibacterial activity against Acinetobacter baumannii MB5973 measured after overnight incubation; assay type: functional
MDA-MB-231 = assay: Cytotoxicity against human MDA-MB-231 cells after 72 hrs by CellTiter-Glo luminescent assay; assay type: functional, cell-based; settings: MDA-MB-231, 72 h
Candida albicans = assay: Antifungal activity against Candida albicans MY1055 measured after overnight incubation; assay type: functional
Klebsiella pneumoniae = assay: Antibacterial activity against Klebsiella pneumoniae ATCC 700603 measured after overnight incubation; assay type: functional
Staphylococcus aureus = assay: Antibacterial activity against methicillin-resistant Staphylococcus aureus MB5393 measured after overnight incubation; assay type: functional
EVSA-T = assay: Cytotoxicity against human EVSA-T cells after 72 hrs by CellTiter-Glo luminescent assay; assay type: functional, cell-based
Escherichia coli = assay: Antibacterial activity against Escherichia coli MB2884 measured after overnight incubation; assay type: functional
[1] = Cytotoxicity against human NCH421K cells after 72 hrs by CellTiter-Glo luminescent assay; assay type: functional, cell-based
[2] = Cytotoxicity against human MEC1 cells after 72 hrs by CellTiter-Glo luminescent assay; assay type: functional, cell-based; settings: MEC1, 72 h
Pseudomonas aeruginosa = assay: Antibacterial activity against Pseudomonas aeruginosa MB5919 measured after overnight incubation; assay type: functional
Aspergillus fumigatus = assay: Antifungal activity against Aspergillus fumigatus ATCC 46645 measured after overnight incubation; assay type: functional
MCF7 = assay: Cytotoxicity against human MCF7 cells after 72 hrs by CellTiter-Glo luminescent assay; assay type: functional, cell-based; settings: MCF7, 72 h

Row | Compound | pIC50 (SW480) | MIC (Acinetobacter baumannii) [µg/mL] | pIC50 (MDA-MB-231) | MIC (Candida albicans) [µg/mL] | MIC (Klebsiella pneumoniae) [µg/mL] | MIC (Staphylococcus aureus) [µg/mL] | pIC50 (EVSA-T) | MIC (Escherichia coli) [µg/mL] | pIC50 [1] | pIC50 [2] | MIC (Pseudomonas aeruginosa) [µg/mL] | MIC (Aspergillus fumigatus) [µg/mL] | pIC50 (MCF7)
1 | CC1(C)[C@@H](O)C(=O)c2c(O)ccc3c2N1C(=O)[C@@]31C[C@]2([N+](=O)[O-])CN3C[C@@H]4O[C@@H]4[C@@H]3C[C@H]2C1(C)C | < 3.74 | > 64 | < 3.74 | > 64 | > 64 | > 64 | < 3.74 | > 64 | < 3.74 | < 3.74 | > 64 | > 64 | < 3.74
2 | COc1ccc2c3c1C(=O)[C@H](O)C(C)(C)N3C(=O)[C@@]21C[C@]2([N+](=O)[O-])CN3C[C@@H]4O[C@@H]4[C@@H]3C[C@H]2C1(C)C | < 3.74 | > 64 | < 3.74 | > 64 | > 64 | > 64 | < 3.74 | > 64 | < 3.74 | < 3.74 | > 64 | > 64 | < 3.74
